The target in this experiment is T1, Interleukin-1 receptor-associated kinase 4 (Homo sapiens, UniProt Q9NWZ3).
T1 sequence (Q9NWZ3 whole entry): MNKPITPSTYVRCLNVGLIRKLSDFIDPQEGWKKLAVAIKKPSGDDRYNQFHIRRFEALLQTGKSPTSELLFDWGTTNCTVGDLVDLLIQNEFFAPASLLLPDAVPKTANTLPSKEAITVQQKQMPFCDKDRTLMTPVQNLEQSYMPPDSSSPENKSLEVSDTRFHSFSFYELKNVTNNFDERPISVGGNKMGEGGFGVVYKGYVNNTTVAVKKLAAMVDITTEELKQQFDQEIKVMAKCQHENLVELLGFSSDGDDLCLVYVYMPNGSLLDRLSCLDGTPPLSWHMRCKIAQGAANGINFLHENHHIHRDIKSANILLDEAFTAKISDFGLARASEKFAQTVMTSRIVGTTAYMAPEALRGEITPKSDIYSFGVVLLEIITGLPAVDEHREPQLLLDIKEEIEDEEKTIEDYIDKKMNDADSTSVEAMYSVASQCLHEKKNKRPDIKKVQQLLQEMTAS
Description: Inhibition of IRAK4 (unknown origin) using FL- IPTSPITTTYFFFKKK peptide as substrate in presence of ATP incubated for 60 mins by fluorescence assay.

As usually defined, the pIC50 is the negative decadic logarithm of the IC50, by convention in mol/L.

pIC50: −log10 of the molar value.

For `CC(C)Nc1c(C(=O)NCCC2CCNC2)cnc2c1[nH]c1cc(C#N)ccc12` (stereo unspecified), the pIC50 was 8.72.
